{
  "source": "paper PMC5671735",
  "about": "“The Effect of CM082, an Oral Tyrosine Kinase Inhibitor, on Experimental Choroidal Neovascularization in Rats” (Journal of Ophthalmology, 2017)",
  "key": {"[1]": {"assay": "LC-MS/MS concentrations of CM082 and its metabolites in plasma and ocular tissues after oral CM082", "type": "in vivo, Brown Norway (BN) rats", "experimental": "(§1) To assess the CM082 distribution and the inhibitory effects of CM082 on CNV development, the 70 rats were randomly divided into 2 groups: 10 rats for evaluating the CNV rat model and to detect the distribution of CM082 and its metabolites and 60 rats for assessing the effects of CM082 on the experimental CNV. CM082 was administered orally at dose of 10 mg/kg/d or 30 mg/kg/d, while the vehicle ([…]) was used as a negative control.\nLiquid chromatography-tandem mass spectrometry (LC-MS/MS) was employed to detect the concentrations of CM082 and its metabolites (X-297 (C22H24FN5O3) and X-471 (C23H28FN5O4)) in the plasma and ocular tissues. An API-4000 triple-quadrupole mass spectrometer (AB Sciex, Framingham, MA, USA) coupled with a Shimadzu liquid chromatography system (Shimadzu Cooperation, Kyoto, Japan) was used for the analysis. CM082, its metabolites, and tolbutamide were dissolved in DMSO to generate 1.0 mg/ml stock solutions stored at 4°C. A total of 200 μl of the tolbutamide stock solution was dissolved in acetonitrile to produce internal-standard working solutions. The plasma and ocular tissue samples were analyzed along with the standard and quality-control samples. The data were analyzed with Analyst 1.6.1 (AB Sciex, Framingham, MA, USA).\nTen BN rats were photocoagulated in the oculus dexter (OD) to build the CNV rat model. Histological examination was performed at day 21, while FFA was conducted at days 14 and 21 to ensure that the CNV model was established successfully and to provide evidence that neovascularization was induced (Figures 1(a), 1(b), and 1(c)). After modeling CNV successfully, to investigate whether CM082 and its metabolites (X-297 and X-471) can reach the retina effectively, the rest of the nine rats were orally treated with CM082 at 10 mg/kg/d for 9 days, starting from day 22. […] Two days after FFA, the rats were sacrificed, and we determined the concentrations of CM082 in the plasma (ng/ml) and the ocular tissues (ng/g) 2 h after CM082 treatment. The concentrations of CM082 in the plasma, the oculus sinister (OS), and the OD were 196.87 ± 24.38 ng/ml, 172.74 ± 20.83 ng/g, and 172.97 ± 18.33 ng/g, respectively. The corresponding concentrations of X-297 were 34.42 ± 3.86 ng/ml, 31.28 ± 4.00 ng/g, and 31.11 ± 3.56 ng/g, while those of X-471 were 32.04 ± 4.57 ng/ml, 16.68 ± 2.18 ng/g, and 15.82 ± 1.85 ng/g."}, "[2]": {"system": "laser-induced CNV rat model", "assay": "Fundus fluorescence angiography (FFA) of fluorescein leakage in laser-induced CNV", "type": "in vivo, Brown Norway (BN) rats", "experimental": "(§2) Laser photocoagulation-induced CNV was established as previously described. Preoperative preparation included general anesthesia, which was induced with an intraperitoneal injection of 1% pentobarbital sodium (40 mg/kg; Sigma-Aldrich, St. Louis, MO, USA). The rats' pupils were dilated using 0.5% tropicamide and 0.5% phenylephrine (Mydrin-P, Santen Pharmaceutical Co., Osaka, Japan). Surface anesthesia was induced with 0.5% Alcaine (Alcon (China) Ophthalmic Product Co., Beijing, China). Bruch's membrane of the right eye was injured using the following laser parameters: 532 nm wavelength, 360 mW intensity, 0.1 s duration, and 50 μm spot size. Eight to ten laser spots were applied to the major retinal vessels at approximately the same distance to the optic disc. A laser-induced cavitation bubble or slight hemorrhage indicated a rupture in Bruch's membrane. Fundus photography was taken immediately after laser photocoagulation to check for fundus hemorrhage.\nas §1\nThe preoperative preparations were the same as those used to establish the CNV model. Approximately 0.2 ml of 10% sodium fluorescein (Alcon Japan, Tokyo, Japan) was injected intraperitoneally, and the leakage of fluorescein from the laser lesions was monitored dynamically for up to 15 min. The images were obtained using confocal scanning laser ophthalmoscopy (Spectralis, Heidelberg Engineering Inc., Heidelberg, Germany) and analyzed using ImageJ software (National Institutes of Health, Bethesda, MD, USA). The signal intensities (brightness of the CNV lesions) defined the degree of leakage. As a reference, the intensity of the capillaries in the normal regions was defined as 0, whereas the intensity at the major branch of the retinal vein was defined as 1.\nTo determine whether CM082 inhibited CNV progression, 60 BN rats were divided into 4 groups and randomized by weight, with 10 rats receiving CM082 at 10 mg/kg/d, 10 receiving CM082 at 30 mg/kg/d, 20 receiving vehicle treatment, and 20 undergoing the RPE-choroid-sclera preparation. […] The CNV analysis was performed on day 14 or 21 after laser photocoagulation using FFA, histological examinations, and immunohistochemistry."}, "[3]": {"system": "laser-induced CNV rat model", "assay": "CNV area in RPE-choroid-sclera flat mounts after FITC-dextran perfusion", "type": "in vivo, Brown Norway (BN) rats", "experimental": "as §2\nTo assess the inhibitory effects of CM082 on CNV development, the photocoagulated rats were randomly divided into 2 groups: (1) a CM082-treated group (n = 9) and (2) a vehicle-treated group (n = 9). CM082 (30 mg/kg/d or 5 ml/kg/d) or vehicle (5 ml/kg/d) was administered beginning on the 7th day after laser injury. On the 7th, 14th, or 21st day, 3 rats from each group were anesthetized, and the left ventricle of the heart was perfused with 2 ml of PBS containing 50 mg of fluorescein isothiocyanate- (FITC-) dextran (2 × 10^6 average molecular weight; Sigma-Aldrich). The enucleated eyes were fixed in 4% paraformaldehyde for 1 h. […] The CNV area was measured by ImageJ software (National Institutes of Health, Bethesda, MD, USA).\nTo further confirm the reverse effect of CM082 at a dose of 30 mg/kg/d on the CNV area, we prepared RPE-choroid-sclera by perfusion with FITC-dextran. […] In addition to comparing the CM082-treated group to the vehicle-treated group, we analyzed the CNV area in the CM082-treated group at different time points."}, "[4]": {"system": "laser-induced CNV rat model", "assay": "CNV histology (HE staining)", "type": "in vivo, Brown Norway (BN) rats", "experimental": "as §2\nThe rats were euthanized after the FFA examination on day 14 or 21 after laser injury, and a histological examination was performed on 4 rats per group at each time point. The animals were enucleated, and the eyes were fixed in paraformaldehyde for 24 h (the eyelashes were also removed). After fixation, the eyes were embedded in paraffin and serially sectioned at 5 μm. […]"}, "[5]": {"system": "phosphorylated VEGFR-2 (p-VEGFR-2)", "assay": "Immunohistochemistry of phosphorylated VEGFR-2 in CNV eyes", "type": "in vivo, Brown Norway (BN) rats", "conditions": "CM082 30 mg/kg oral, 14 and 21 days after laser injury, vs vehicle", "experimental": "The rats were euthanized after the FFA examination on day 14 or 21 after laser injury, and a histological examination was performed on 4 rats per group at each time point. The animals were enucleated, and the eyes were fixed in paraformaldehyde for 24 h (the eyelashes were also removed). After fixation, the eyes were embedded in paraffin and serially sectioned at 5 μm. Routine hematoxylin-eosin (HE) staining was performed on selected slides, and the serial sections were examined using a light microscope. Immunohistochemical staining was performed on the histological sections from the CM082-treated and vehicle-treated groups 14 and 21 days after laser administration. Routine immunolocalization procedures were used to dewax and rehydrate the slides. The slides were incubated with 3% hydrogen peroxidase for 25 min and washed in phosphate-buffered saline (PBS) for 5 min. The slides were then blocked in goat serum for 15 min. Next, the sections were incubated with a phosphorylated anti-VEGFR-2 antibody (Nanjing Bioworld Biotech Co., Jiangsu, China) overnight at 4°C, followed by incubation with Goat Anti-Rabbit/Rat IgG antibody (Dako Denmark A/S, Denmark) for 30 min. The sections were subsequently incubated with horseradish peroxidase-conjugated streptavidin (Thermo Fisher Scientific China, Shanghai, China) for 30 min and then counterstained with hematoxylin for 2 min. […]"}, "[6]": {"type": "in vivo", "conditions": "oral CM082 10 or 30 mg/kg/d", "description": "[…] BN rats were used in this study."}, "[7]": {"system": "oxidative-induced retinopathy", "conditions": "CM082-treated group compared to control group; no reference given; cited from earlier work"}, "[8]": {"system": "CNV model produced by subretinal injection of Matrigel", "conditions": "no reference given; cited from earlier work"}},
  "note": "Where “and” joins values, the source holds several entries; their conditions need not be identical. Equal values may be shown once.",
  "data": [
    {"smiles": "Cc1[nH]c(/C=C2\\C(=O)Nc3ccc(F)cc32)c(C)c1C(=O)N[C@H]1CCN(C(=O)N(C)C)C1", "note": "[CM082]", "values": [
      {"measurement": "distribution within the ocular tissues", "setting": "[1]; 2 h after CM082 administration, oral 10 mg/kg/d", "result": "highest in the retina-sclera"},
      {"measurement": "concentration in the oculus sinister (OS)", "setting": "[1]; CM082 oral 10 mg/kg/d for 9 days, 2 h after CM082 treatment, n = 9, eye without laser injury", "result": "172.74 ± 20.83", "unit": "ng/g"},
      {"measurement": "concentration in the oculus dexter (OD)", "setting": "[1]; CM082 oral 10 mg/kg/d for 9 days, 2 h after CM082 treatment, n = 9, photocoagulated eye", "result": "172.97 ± 18.33", "unit": "ng/g"},
      {"measurement": "concentration in the plasma", "setting": "[1]; CM082 oral 10 mg/kg/d for 9 days, 2 h after CM082 treatment, n = 9, 10 mg/kg/day", "result": "0.19687 ± 0.07313 µg/mL and 0.19687 ± 0.02438 µg/mL"},
      {"measurement": "total concentration in the eyes", "setting": "[1]; oral CM082, abstract value", "result": "172.86 ± 57.11", "unit": "ng/g"},
      {"measurement": "FFA leakage signal intensity", "setting": "[2]; 10 mg/kg/d group, day 7 after laser injury, before CM082 administration (baseline), scale 0 = capillaries, 1 = retinal vein, vehicle 0.81 ± 0.03", "result": "0.78 ± 0.04"},
      {"measurement": "FFA leakage signal intensity", "setting": "[2]; 30 mg/kg/d group, day 7 after photocoagulation, before dosing (baseline), vehicle 0.81 ± 0.02, p > 0.05", "result": "0.77 ± 0.04"},
      {"measurement": "FFA leakage signal intensity", "setting": "[2]; CM082 10 mg/kg/d oral from day 7, day 21 after laser injury (14 days after dosing), vehicle 0.82 ± 0.03, p < 0.01", "result": "0.66 ± 0.05"},
      {"measurement": "FFA fluorescein leakage vs days 14 and 21", "setting": "[2]; CM082 10 mg/kg/d oral started day 22 after laser, FFA after 7 days of administration (day 28), p > 0.05", "result": "no significant reduction in fluorescein leakage"},
      {"measurement": "FFA leakage signal intensity", "setting": "[2]; CM082 30 mg/kg/d oral from day 7, day 14, vehicle 0.83 ± 0.03, p < 0.001", "result": "0.42 ± 0.03"},
      {"measurement": "FFA leakage signal intensity", "setting": "[2]; CM082 30 mg/kg/d oral from day 7, day 21, vehicle 0.86 ± 0.02, p < 0.001", "result": "0.35 ± 0.05"},
      {"measurement": "area of the CNV lesions", "setting": "[3]; 30 mg/kg/d group, 7 days after laser photocoagulation, before dosing (baseline), vehicle 4.84 ± 0.72", "result": "4.45 ± 0.90", "unit": "μm^2 × 10^4"},
      {"measurement": "area of the CNV lesions", "setting": "[3]; CM082 30 mg/kg/d oral from day 7, 14 days after laser injury, vehicle 9.60 ± 1.68", "result": "1.48 ± 0.24", "unit": "μm^2 × 10^4"},
      {"measurement": "area of the CNV lesions", "setting": "[3]; CM082 30 mg/kg/d oral from day 7, 21 days after laser injury, vehicle 19.61", "result": "1.03 ± 0.27", "unit": "μm^2 × 10^4"},
      {"measurement": "CNV lesion size by histology (HE)", "setting": "[4]; CM082 10 mg/kg/d oral, day 21, vs vehicle", "result": "smaller"},
      {"measurement": "edema, depigmentation, and CNV areas by histology (HE)", "setting": "[4]; CM082 30 mg/kg/d oral, 14 and 21 days after laser photocoagulation, vs vehicle", "result": "significantly decreased"},
      {"measurement": "p-VEGFR-2 immunostaining", "setting": "[5]", "result": "reduced the aggregation of p-VEGFR-2 in the RPE and OPL"},
      {"measurement": "tolerability during treatment", "setting": "[6]", "result": "no behavioral change, death, or body weight loss"},
      {"measurement": "inhibition rate", "setting": "[7]", "result": 71.1, "unit": "%"},
      {"measurement": "areas of CNV lesions", "setting": "[8]", "result": "reduced the areas of CNV lesions"}
    ]}
  ]
}
